From patent publication US6514980B1, “Nucleoside analogs in combination therapy of herpes simplex infections” (Novartis International Pharmaceutical Ltd., priority 1996, dated 2003)

System: HSV-1 (SC16)
Test: Cutaneous HSV-1 infection of the ear pinna in mice immunosuppressed with Cyclosporin A (second experiment)
Format: in vivo
Details: BALB/c mice immunosupressed with Cyclosporin A (second experiment) compared with immunocompetant mice (first experiment); oral antiviral treatment
Method: A cutaneous infection was established by inoculation of the ear pinnae of mice with HSV-1 (SC16) and the effects of oral famciclovir and valaciclovir on the latent virus infection was investigated.
BALB/c female mice (Bantin and Kingman, Kingston, Hull, UK) were purchased at 3 to 4 weeks old and inoculated one week later. Virus suspension (10 ul) containing 5×10^4 p.f.u. were inoculated into the skin of the left ear pinna. Skin thickness was measured daily in individual mice by means of an Engineers' micrometer screw gauge. (ref. Nash et al, 1980, J. Gen. Virol. 48, 351-357). Mice were killed daily and tissues removed for virus assays. Other mice were […]. The trigeminal ganglia and cervical dorsal root ganglia were removed and co-cultivated. Those cultures showing virus replication were recorded as positive.
In a first experiment, groups of immunocompetant mice were untreated (control), antiviral treatment was initiated on days 1, 2, 3, 4 or 5 post-infection (p.i.) and ceased on day 10 p.i.. The compounds were administered ad libitum in the drinking water, at 1 mg/ml (approximately 100 mg/kg/day).
In a second experiment, mice were immunosupressed with Cyclosporin A (CyA) from day-2 to day=10 (day 0 being the day of infection). […]

**Q.** `CC(=O)OCC(CCn1cnc2cnc(N)nc21)COC(C)=O` [famciclovir] was tested. Which “effect on virus replication and disease” value did it give?
**A.** significantly greater effect

**Q.** Which “effect on virus replication and disease” value does the source give for `CC(C)[C@H](N)C(=O)OCCOCn1cnc2c(=O)[nH]c(N)nc21` [valaciclovir] here?
**A.** significantly greater effect
